Reference: patent publication US20230181599A1, “PROGESTOGEN FORMULATIONS AND USES THEREOF” (Shenzhen Evergreen Therapeutics Co., Ltd, priority 2020, published 2023)

Tests used:
Body weight of COPD rats = assay type: in vivo, Wistar rats; conditions: at 24 weeks; for weight increase: vs model group / BUD alone groups
Description: Inhibition of weight increase was lower in 17-HPC group than in the same dose BUD group.

[1] = Saxton D J et al. 2004; cited from earlier work
[2] = system: smoke exposure-induced COPD rats; assay: Lung function (FEV0.2/FVC, small animal spirometer) in smoke exposure-induced COPD rats; assay type: in vivo, Wistar rats; conditions: CS-exposed rats, nebulized drug; compared with the model group
Method: (§1) Seventy-two Wistar rats were randomly divided into the blank control group, model group, 17-HPC (0.5 mg/ml, 0.25 mg/ml and 0.1 mg/ml) groups, BUD (0.5 mg/ml and 0.1 mg/ml) groups, and combination treatment (0.5 mg/ml BUD+0.25 mg/ml 17-HPC and 0.1 mg/ml BUD+0.25 mg/ml 17-HPC) groups. Drug concentration is the nebulized solution concentration. Lung function (forced vital capacity) of rats was measured using the small animal spirometer, and differential count in the BALF was determined under the microscope. Serum and BALF cytokine (IL-6, IL-17, TNF-α and IL-β) levels were measured by ELISA. Inflammatory cell infiltration area and MLI in rat lung tissues were determined by HE staining. Lung function of rats was measured using the small animal spirometer after 24 weeks of CS exposure.

[3] = biological target: ABCB1 efflux transporters (Homo sapiens, UniProt P08183); conditions: Bloise, E., et al. 2016; cited from earlier work
[4] = system: smoke exposure-induced COPD rats; assay: HE staining of lung tissue: inflammatory cell infiltration area and MLI in COPD rats; assay type: in vivo, Wistar rats
Method: (§2) Seventy-two Wistar rats were randomly divided into the blank control group, model group, 17-HPC (0.5 mg/ml, 0.25 mg/ml and 0.1 mg/ml) groups, BUD (0.5 mg/ml and 0.1 mg/ml) groups, and combination treatment (0.5 mg/ml BUD+0.25 mg/ml 17-HPC and 0.1 mg/ml BUD+0.25 mg/ml 17-HPC) groups. Drug concentration is the nebulized solution concentration. Lung function (forced vital capacity) of rats was measured using the small animal spirometer, and differential count in the BALF was determined under the microscope. Serum and BALF cytokine (IL-6, IL-17, TNF-α and IL-β) levels were measured by ELISA. Inflammatory cell infiltration area and MLI in rat lung tissues were determined by HE staining. […] The efficacy of high dose BUD was equivalent to that of high dose BUD+17-HPC.

Sprague-Dawley rats = assay: Seven-day inhalation toxicity study in rats (GLP); assay type: in vivo
Method: (§3) A 7-day inhalation toxicity study in rats was conducted under GLP conditions. In this study, aerosolized 17-HPC was administered to Sprague-Dawley rats (10/sex/group) at 8, 24, and 72 mg/kg/day for 7 consecutive days. A control group of rats was dosed with aerosolized vehicle. Animals were observed daily for clinical signs. Body weight and food consumption were recorded at pretest, and then on Days 1, 4, and 7. In order to evaluate reversibility of 17-HPC treatment, a satellite rat group (5/sex/group) was dosed by inhalation at 72 mg/kg/day for 7 days, and then was sacrificed on Day 14. Except for the rats in the satellite group, all animals were sacrificed on Day 8. Hematology and biochemistry examinations were performed at the end of the study. Organ weight, gross pathology, and histopathology evaluations were performed.
(§4) Histopathological examinations on the animal tissues from the 24 and 72 mg/kg/day groups have not been completed prior to submission of this pre-IND package.
(§5) Based on the preliminary results of this study, inhalational administration of 17-HPC at 8 mg/kg/day (48 mg/m^2/day) was determined as the no observed adverse effect level (NOAEL) The proposed clinical study is a single dose inhalation study starting at a dose level of 300 μg, which is approximately 6 μg/kg/day (222 μg/m^2/day) based on a human body weight of 50 kg/person. Therefore, the NOAEL generated in this inhalation study is approximately 216 times greater than the proposed initial clinical dose based on body surface areas.

[5] = Seven-day inhalation toxicity study in rats (GLP); assay type: in vivo, Sprague-Dawley rats; conditions: both sexes, Sprague-Dawley, rat, in vivo, inhaled or intranasal; inhalation, 7 consecutive days, rats; preliminary results; read-out: no observed adverse effect level (NOAEL)
Method: as §3, §4, §5

[6] = PK of oral formulations of PR2005 in female dogs, relative bioavailability vs intramuscular injection (MAKENA); assay type: in vivo
Description: This study determined the pharmacokinetic parameters of the test drug PR2005 (also referred to herein as 17-HPC) in different formulations after oral gavage or capsule administrations in dogs. This study further determined the relative bioavailability of the test drug PR2005 in each formulation, compared to intramuscular injection solution (MAKENA®).
PK parameters were estimated, including maximum plasma drug concentration (Cmax), time to reach Cmax (Tmax), time delay in absorption process (Tlag), area under the plasma concentration-time curve from time 0 to the last quantifiable data point (AUClast), area under the plasma concentration-time curve from time zero to infinity (AUCinf), plasma half-life (t1/2), and apparent plasma clearance (CL/F), apparent volume of distribution (Vz/F). All these parameters were computed using standard non-compartmental methods of analysis. Geometric mean and CV % are reported for most of PK parameters, and median with range is reported for Tmax and Tlag. Plasma PR2005 PK data was analyzed in Pheonix WinNonLin 8.1 (Certara USA, Inc.).
Log-transformed values of AUCinf were analyzed using a linear mixed-effects model. Least squares mean (LSM) for each treatment group and 90% confidence interval (CI) for the mean of the pairwise differences were estimated using this model. After back transformation from the log scale, estimates of geometric LSM and 90% CI for the ratio of means were calculated. Relative bioavailability (Fr %) was calculated as the ratio of dose normalized geometric least square mean (LSM) for test formulation and IM solution: […]
PR2005 250 mg intramuscular injection: 250 mg 17-HPC, 28.6% v/v of castor oil (CAS 8001-79-4), 46% v/v of benzyl benzoate (CAS 120-51-4), and 2% v/v of benzyl alcohol.
PR2005 250 mg oral (powder in capsules): 20% w/w of 17-HPC and 80% w/w mannitol. The particle size of 17-HPC is from about 2 to about 10 μm.
PR2005 250 mg Suspension #1: 30% w/w of 17-HPC and 70% castor oil (CAS 8001-79-4). The particle size of 17-HPC is from about 5 to about 30 μm.
PR2005 250 mg and 750 mg Solution #3: 30% w/w of 17-HPC, 63% w/w of benzyl benzoate (CAS 120-51-4), and 7% w/w of macrogolglycerol ricinoleate (CAS 61791-12-6).
The test items were administered on the first day of each trial. Each animal group was rotated through each trial with at least 4 days between trials and a […] 7-day washout between each test item administration.

[7] = system: TNF-α, IL-1β, IL-6 and IL-17; assay: Serum and BALF cytokine levels by ELISA in COPD rats; assay type: in vivo, Wistar rats; conditions: different doses, aside from the low dose (0.1 mg/ml) 17-HPC group
Method: as §1, with “To examine the in vitro and in vivo efficacy of 17-HPC inhalation in chronic obstructive pulmonary disease (COPD) rats, a rat model of COPD was established by exposing Wistar rats to CS for 1 hour every day for a total of 180 days. Seventy-two” for “Seventy-two”, “staining.” for “staining. Lung function of rats was measured using the small animal spirometer after 24 weeks of CS exposure.”

[8] = system: smoke exposure-induced COPD rats; assay: Differential count in BALF (neutrophils) of COPD rats; assay type: in vivo, Wistar rats; conditions: CS-exposed rats, nebulized drug
Method: as §2

[9] = 250 mg intramuscular injection, geometric mean

Chain of ABCB1 efflux transporters (P08183 whole entry): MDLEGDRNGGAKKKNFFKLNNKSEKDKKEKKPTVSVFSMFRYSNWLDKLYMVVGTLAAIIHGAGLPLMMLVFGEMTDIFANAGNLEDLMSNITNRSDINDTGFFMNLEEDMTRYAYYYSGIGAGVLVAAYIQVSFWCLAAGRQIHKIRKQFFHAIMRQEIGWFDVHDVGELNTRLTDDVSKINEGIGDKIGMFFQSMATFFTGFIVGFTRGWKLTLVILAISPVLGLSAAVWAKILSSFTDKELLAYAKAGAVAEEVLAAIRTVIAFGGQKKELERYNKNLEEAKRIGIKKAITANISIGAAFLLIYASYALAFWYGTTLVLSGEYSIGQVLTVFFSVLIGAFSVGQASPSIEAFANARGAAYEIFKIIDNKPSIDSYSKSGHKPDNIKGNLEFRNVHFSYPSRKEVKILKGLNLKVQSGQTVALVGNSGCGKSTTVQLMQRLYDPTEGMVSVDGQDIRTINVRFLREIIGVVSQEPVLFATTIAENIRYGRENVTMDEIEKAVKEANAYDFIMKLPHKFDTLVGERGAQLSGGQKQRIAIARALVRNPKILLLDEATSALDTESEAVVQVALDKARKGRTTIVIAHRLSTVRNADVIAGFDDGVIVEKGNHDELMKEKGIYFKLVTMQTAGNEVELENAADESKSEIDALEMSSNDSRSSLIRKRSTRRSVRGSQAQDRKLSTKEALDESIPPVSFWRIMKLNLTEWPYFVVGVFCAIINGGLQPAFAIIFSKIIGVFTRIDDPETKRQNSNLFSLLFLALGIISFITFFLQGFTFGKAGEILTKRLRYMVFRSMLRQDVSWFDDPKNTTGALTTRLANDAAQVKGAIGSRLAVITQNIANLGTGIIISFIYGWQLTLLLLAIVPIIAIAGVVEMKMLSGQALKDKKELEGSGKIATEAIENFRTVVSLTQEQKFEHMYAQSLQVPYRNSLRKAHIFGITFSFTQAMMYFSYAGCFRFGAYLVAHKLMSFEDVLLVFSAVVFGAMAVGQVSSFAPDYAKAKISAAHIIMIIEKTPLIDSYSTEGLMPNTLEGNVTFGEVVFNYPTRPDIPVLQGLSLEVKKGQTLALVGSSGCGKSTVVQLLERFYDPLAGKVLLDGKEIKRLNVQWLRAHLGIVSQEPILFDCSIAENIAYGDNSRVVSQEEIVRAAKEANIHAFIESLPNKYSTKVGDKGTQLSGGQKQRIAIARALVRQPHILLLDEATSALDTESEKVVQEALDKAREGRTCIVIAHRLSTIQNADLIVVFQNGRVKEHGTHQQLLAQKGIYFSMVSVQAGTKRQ

| Compound | weight increase (Body weight of COPD rats) | activity when administered orally [1] | FEV0.2/FVC % [2] | ABCB1 efflux transporter substrate [3] | inflammatory cell infiltration in lung tissue sections (HE staining) ([4]; 17-HPC groups vs model rats) | MLI ([4]; aside from the 0.1 mg/ml 17-HPC group, dose-dependent) | inflammatory cell infiltration in the lung tissues ([4]; high dose 17-HPC) | no observed adverse effect level (NOAEL), body surface area (Sprague-Dawley rats; inhalation, 7 days, rats) [mg/m^2/day] | NOAEL relative to the proposed initial clinical dose (300 μg) based on body surface areas (Sprague-Dawley rats; rat, in vivo) | pathological alterations after a 7-day recovery period (Sprague-Dawley rats; rat, in vivo, 72 mg/kg/day) | NOAEL at 7 days [5] [mg/kg/day] | Cl/F [6, 9] [L/h] | V [6, 9] [L] | half-life ([6]; female, dog, plasma, im, 250 mg intramuscular injection, geometric mean) [h] | Tmax ([6]; female, dog, plasma, im, 250 mg intramuscular injection, median) [h] | dose proportionality of Cmax and AUC, 250 to 750 mg ([6]; oral) | TNF-α, IL-1β, IL-6 and IL-17 levels in the BALF [7] | percentage of neutrophils in rat BALF [8] | Inhibition of weight increase vs same dose BUD group (Body weight of COPD rats) |
| --- | --- | --- | --- | --- | --- | --- | --- | --- | --- | --- | --- | --- | --- | --- | --- | --- | --- | --- | --- |
| CCCC1O[C@@H]2C[C@H]3[C@@H]4CCC5=CC(=O)C=C[C@]5(C)[C@H]4[C@@H](O)C[C@]3(C)[C@]2(C(=O)CO)O1 (some centres unmarked) [BUD, budesonide] | inhibited weight increase | – | – | – | – | – | – | – | – | – | – | – | – | – | – | – | – | – | – |
| CCCCCC(=O)O[C@]1(C(C)=O)CC[C@H]2[C@@H]3CCC4=CC(=O)CC[C@]4(C)[C@H]3CC[C@@]21C [Solution 17-HPC, 17-[(1-Oxohexyl)oxyl]-pregn-4-ene-3,20-dione] | no difference in weight increase | inactive | improved FEV0.2/FVC % in a dose-dependent manner | substrate of ABCB1 efflux transporters | attenuated | decreased | antagonize inflammatory cell infiltration | 48 | approximately 216 times | no remarkable pathological alterations | 8 | 35.68 | 2485 | 48.4 | 48 | generally greater than dose proportional | downregulate | reduced the percentage of neutrophils | lower |
